Among the test systems are OVCAR-8 ovarian; SNB-19 CNS; COLO 205 colon; T-47D breast; A549 NSCLC; UACC-62 melanoma; EKVX NSCLC; PC-3 prostate; K-562 leukemia; SN12C renal; UO-31 renal; NCI-H522 lung; SW-620 colon; SF-539 CNS; 786-0 renal.
Holding throughout (experiment): NCI tumour cell line growth inhibition, 48 h

The structures appear in SMILES notation.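 These data come from cells grown in 96-well plates and exposed to compound for 48 hours at five concentrations. TGI is the concentration that stops growth completely.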 *1 amine or outer side, *2 acyl side, *3 side chain or, on linkers, in order; H or OH if unused. Where a SMILES comes first, the peptide text is derived from it. Bridges are numbered along the chain shown (N, C = ends). [ ]: non-standard residue; d: D form. X59 = COc1c(N[*:1])cccc1C(=O)O[C@H](C(=O)[C@H](C)C(=O)[*:2])C(C)C; X58 = CC(C)C[C@H](C(=O)[*:2])C(C)C(=O)C1CCCN1[*:1]; NMeY = CN[C@@H](Cc1ccc(O)cc1)C(=O)O; Lac = C[C@H](O)C(=O)O

For the molecule `O=C1O/C(=C(/Cl)c2c3ccccc3cc3ccccc23)c2ccccc21`, the TGI in the experiment on OVCAR-8 ovarian was 69.9 µM; with SNB-19 CNS, > 100 µM; in the experiment with COLO 205 colon, 49.2 µM; in the experiment on T-47D breast, > 100 µM; in the experiment with A549 NSCLC, > 100 µM; in the experiment with UACC-62 melanoma, > 100 µM. Also, the TGI with EKVX NSCLC, in the experiment with PC-3 prostate, with K-562 leukemia, in the experiment on SN12C renal, in the experiment with UO-31 renal and with NCI-H522 lung was > 100 µM each time. The results for the TGI in the experiment with SW-620 colon, with SF-539 CNS and in the experiment with 786-0 renal were > 100 µM, 47.8 µM and 40.5 µM, respectively.
As to `O=C(/C=C/c1ccccc1Br)c1ccccc1`, the TGI with OVCAR-8 ovarian was determined as 8.31 µM; in the experiment with SNB-19 CNS, 23.2 µM; in the experiment on COLO 205 colon it was 28.6 µM; in the experiment with T-47D breast, 15.5 µM; in the experiment with A549 NSCLC it was 25.3 µM; in the experiment with UACC-62 melanoma, 23.6 µM. Also, the TGI with EKVX NSCLC worked out at 26.4 µM; with PC-3 prostate, 23.5 µM; in the experiment with K-562 leukemia it was 5.14 µM; with SN12C renal, 21.7 µM; with UO-31 renal, 11.3 µM; in the experiment with NCI-H522 lung it was 9.73 µM. Further, the TGI in the experiment with SW-620 colon was 3.02 µM; with SF-539 CNS, 15.6 µM; in the experiment with 786-0 renal, 4.39 µM.
As for `COC(=O)/C=C/C(=O)Nc1cc(Cl)c(Cl)cc1CC(=O)N(C)[C@H]1CCCC[C@@H]1N1CCCC1`, the TGI in the experiment with OVCAR-8 ovarian was 16.3 µM; in the experiment with SNB-19 CNS, 37.7 µM; in the experiment on COLO 205 colon, 7.21 µM; in the experiment on T-47D breast it was 28.5 µM; in the experiment with A549 NSCLC, > 54.2 µM; in the experiment on UACC-62 melanoma it was 28.4 µM. The TGI is 29.2 µM with EKVX NSCLC; 17.9 µM in the experiment with PC-3 prostate; > 33.5 µM in the experiment with K-562 leukemia; 25.1 µM in the experiment on SN12C renal; 21.3 µM with UO-31 renal; 7.89 µM in the experiment with NCI-H522 lung. Besides, the results for the TGI in the experiment with SW-620 colon, in the experiment with SF-539 CNS and with 786-0 renal were 26.7 µM, 13.3 µM and 22.1 µM, respectively.
Take `Cn1c(-c2cccs2)cc(-c2ccsc2)c1-c1cccs1`: the TGI in the experiment with OVCAR-8 ovarian is > 100 µM; in the experiment on SNB-19 CNS, > 100 µM; in the experiment on COLO 205 colon, 46.5 µM; in the experiment with T-47D breast it was 73.2 µM; in the experiment with A549 NSCLC, > 100 µM; in the experiment on UACC-62 melanoma, > 100 µM. Besides, the TGI in the experiment on EKVX NSCLC, with PC-3 prostate, in the experiment with K-562 leukemia, in the experiment with SN12C renal, in the experiment on UO-31 renal and in the experiment with NCI-H522 lung was > 100 µM in each case. The TGI with SW-620 colon, with SF-539 CNS and with 786-0 renal was > 100 µM throughout.
`Cc1c(-c2ccccc2)c(C#N)c2nnn(C)c(=O)n12`: the TGI with OVCAR-8 ovarian, with SNB-19 CNS, with COLO 205 colon, with T-47D breast, in the experiment on A549 NSCLC and in the experiment with UACC-62 melanoma was > 100 µM each time. For the same molecule, the TGI with EKVX NSCLC, in the experiment on PC-3 prostate, with K-562 leukemia, with SN12C renal, in the experiment with UO-31 renal and in the experiment with NCI-H522 lung was > 100 µM throughout. In addition, the TGI in the experiment on SW-620 colon, with SF-539 CNS and with 786-0 renal was > 100 µM throughout.
For `CC(=O)c1sc2n(C)c(=O)c3ccccc3[n+]2c1C`, the TGI with OVCAR-8 ovarian, in the experiment with SNB-19 CNS, in the experiment with COLO 205 colon, in the experiment on T-47D breast, in the experiment with A549 NSCLC and in the experiment on UACC-62 melanoma was > 100 µM throughout. The TGI with EKVX NSCLC, in the experiment on PC-3 prostate, with K-562 leukemia, in the experiment with SN12C renal, in the experiment on UO-31 renal and in the experiment on NCI-H522 lung was > 100 µM throughout. In addition, the TGI in the experiment on SW-620 colon, in the experiment on SF-539 CNS and in the experiment with 786-0 renal was > 100 µM in each case.
As to `COc1ccc(C[C@H]2C(=O)O[C@H](C)[C@H](NC(=O)[C@@H](CC(C)C)C(C)C(=O)C3CCCN3C(=O)[C@H](C)O)C(=O)Nc3cccc(c3OC)C(=O)O[C@@H](C(C)C)C(=O)[C@H](C)C(=O)N[C@@H](CC(C)C)C(=O)N3CCC[C@H]3C(=O)N2C)cc1` (stereo not given in full) (H-[Lac][X58]T[X59]LP[NMeY](Me); ester 3-C), the TGI in the experiment on OVCAR-8 ovarian, in the experiment with SNB-19 CNS, with COLO 205 colon, in the experiment with T-47D breast, in the experiment with A549 NSCLC and with UACC-62 melanoma was > 12.5 µM throughout. The TGI with EKVX NSCLC, with PC-3 prostate, in the experiment on K-562 leukemia, in the experiment on SN12C renal, in the experiment with UO-31 renal and in the experiment with NCI-H522 lung was > 12.5 µM throughout. The TGI in the experiment on SW-620 colon, in the experiment on SF-539 CNS and with 786-0 renal was > 12.5 µM each time.

Source of the values: PubChem BioAssay (NCI).
